For assay [1], the system named is Red blood cell lysis by H2O2. The experiment in a line: Effect of Dansheng components on red blood cell lysis by H2O2 (Table IV). The class given is cell-based. The arrangement: key to Effect (red blood cell lysis by H2O2): -: not effective; +: effective; ++: very effective. The following applies: 0.33 mg/ml; for inhibition at 330 µg/mL: Erythrocyte, read-out: Degree of Inhibition (red blood cell lysis by H2O2). The method, then: These compounds were prepared at 0.33 mg/ml.

Assay [2] relates to Platelet aggregation. The assay can be described thus: Effect of Dansheng components on platelet anti-aggregation, in vitro (Table VI). The class given is cell-based. Also on record: key to Effect (platelet anti-aggregation): -: not effective; +: effective; ++: very effective. As to conditions: for platelet anti-aggregation potency, in words: Tables II and VI.
Assay [3] in a line: Overall bioactivity in three categories: platelet anti-aggregation, life extension under hypoxia, anti-oxidation. As to conditions: anti-oxidation (liver cell protection). The method, then: (§1) The other seven compounds are evaluated based on: [1] Their anti-oxidant activity, [2] Anti-platelet aggregation, and [3] Endurance under hypoxia conditions.
Assay [4] relates to rats. The assay can be described thus: Effect of Dansheng components on rats under hypoxia condition (Table V). It counts as in vivo. The arrangement: key to Effect (rats under hypoxia condition): -: not effective; +: effective; ++: very effective. The following applies: 100 mg/kg dose.
Assay [5] relates to Platelet aggregation. The assay can be described thus: Platelet anti-aggregation effect of Magnesium Salvianolate B and its derivatives, in vitro (Table II). It counts as cell-based. The following applies: 900 mcg/ml.
The next assay deals with Liver cell. The experiment in a line: Effect on liver cell MDA amount induced by carbon tetrachloride (antioxidant activity, liver cell protection; Table I). The following applies: 0.5 micro mole/ml. It counts as cell-based. The source says: Table I: Effect of Dansheng Constituents on Liver Cell MDA (Molonyldialdehyde) Amount Induced by Carbon Tetrachloride
Assay [6] has as its system rats. The assay can be described thus: Life extension / endurance under hypoxia condition (Table III). It counts as in vivo. The following applies: for extended rats life (up to): hypoxia, dose not given. The method, then:
as §1
Compounds 6 and 8 effectively extended rats life up to 78% Other compounds are comparatively lower in this category (see Tables III and V below).

For a further assay, the system named is animal. The following applies: Chen et al., 1980; cited from earlier work.

In the case of `O=C(O)C(O)Cc1ccc(O)c(O)c1` (stereo not shown) [Compound 1, Potassium 3' 4-dihydroxyphenyllactate], in assay [1], the “Effect (red blood cell lysis by H2O2)” value was “++” and the inhibition at 330 µg/mL was 100%. At 180 µg/mL the inhibition in the assay with Platelet aggregation [2] (Platelet, 180 mcg/ml, in vitro) was 0%. This compound yielded an inhibition at 900 µg/mL in the assay with Platelet aggregation [2] (Platelet, 900 mcg/ml, in vitro) of 0%. For the same compound, the “bioactivity level, in words” value in assay [3] is reported as “lowest bio-activity level”.
Regarding `O=C(/C=C/c1ccc(O)c(O)c1)O[C@H](Cc1ccc(O)c(O)c1)C(=O)O` [Compound 2, Sodium Rosmarinate], in assay [1], the “Effect (red blood cell lysis by H2O2)” value is recorded as “++” and the inhibition at 330 µg/mL worked out at 100%. This compound came in with an inhibition at 180 µg/mL in the assay on Platelet aggregation [2] (Platelet, 180 mcg/ml, in vitro) of 0%. In the assay with Platelet aggregation [2] (Platelet, 900 mcg/ml, in vitro), testing at 900 µg/mL gave an inhibition of 13%. In addition, in the assay on rats [4], the “Effect (rats under hypoxia condition)” value is recorded as “++” and the “Life Expanded” value worked out at 42%.
With `O=C(/C=C/c1ccc(O)c2c1C(C(=O)O)C(c1ccc(O)c(O)c1)O2)OC(Cc1ccc(O)c(O)c1)C(=O)O` (stereo not shown) [Compound 3, Dipotassium Lithospermate], in assay [1], the “Effect (red blood cell lysis by H2O2)” value was “++” and the inhibition at 330 µg/mL stood at 100%. In addition, at 180 µg/mL the inhibition in the assay on Platelet aggregation [2] (Platelet, 180 mcg/ml, in vitro) was 0%. Also, at 900 µg/mL the inhibition in the assay with Platelet aggregation [2] (Platelet, 900 mcg/ml, in vitro) was 18%. In the assay with rats [4], the “Effect (rats under hypoxia condition)” value is reported as “+” and the “Life Expanded” value is listed as 23%.
Consider `O=C(/C=C/c1ccc(O)c2c1C(C(=O)O)C(c1ccc(O)c(O)c1)O2)OC(Cc1ccc(O)c(O)c1)C(=O)O` (stereo not shown) [Compound 4, Magnesium Lithospermate], for which, in assay [1], the “Degree of Inhibition (red blood cell lysis by H2O2)” value (“Degree of Inhibition” for short) was determined as 100% and the “Effect (red blood cell lysis by H2O2)” value was “++”. Also, the “% Inhibition (platelet anti-aggregation)” value in the assay on Platelet aggregation [2] (180 mcg/ml, in vitro) is given as 0%. For the same compound, in the assay with Platelet aggregation [2] (900 mcg/ml, in vitro), the “% Inhibition (platelet anti-aggregation)” value is 28%. For the same compound, in the assay on rats [4], the “Effect (rats under hypoxia condition)” value is listed as “+” and the “Life Expanded” value amounted to 45%.
Turning to `O=C(/C=C/c1ccc(O)c2c1C(C(=O)OC(Cc1ccc(O)c(O)c1)C(=O)O)C(c1ccc(O)c(O)c1)O2)OC(Cc1ccc(O)c(O)c1)C(=O)O` (stereo not shown) [Compound 5, Dipotassium Salvianolate B], in assay [1], the “Effect (red blood cell lysis by H2O2)” value is “++” and the inhibition at 330 µg/mL came to 100%. In addition, in the assay on Platelet aggregation [2] (900 mcg/ml, in vitro), the “% Inhibition (platelet anti-aggregation)” value turned out to be 44% and the “Effect (platelet anti-aggregation)” value is recorded as “+”. For the same compound, testing at 180 µg/mL in the assay with Platelet aggregation [2] (Platelet, 180 mcg/ml, in vitro) gave an inhibition of 0%.
The compound `O=C(/C=C/c1ccc(O)c2c1C(C(=O)OC(Cc1ccc(O)c(O)c1)C(=O)O)C(c1ccc(O)c(O)c1)O2)OC(Cc1ccc(O)c(O)c1)C(=O)O` (stereo not shown) [Compound 6, Magnesium Salvianolate B] came in with an inhibition at 900 µg/mL with Platelet aggregation [5] of 94%. Further, in assay [1], the “Degree of Inhibition” value is reported as 100% and the “Effect (red blood cell lysis by H2O2)” value is recorded as “++”. In the assay on Platelet aggregation [2] (180 mcg/ml, in vitro), the “% Inhibition (platelet anti-aggregation)” value was found to be 0%. In addition, in the assay with Platelet aggregation [2] (900 mcg/ml, in vitro), the “% Inhibition (platelet anti-aggregation)” value is 74% and the “Effect (platelet anti-aggregation)” value is “+”. In the assay with Platelet aggregation [2] (Platelet, 450 mcg/ml, in vitro), this compound had an inhibition at 450 µg/mL of 15%. The “platelet anti-aggregation potency, in words” value in the assay with Platelet aggregation [2] is “highest potency”. For the same compound, the “platelet anti-aggregation potency, in words” value in the assay with Platelet aggregation [2] (listed as MSV) was “most potent”. In the assay on Liver cell, the “secretion of MDA from liver cell, in words” value was “decreases the secretion of MDA from liver cell”. Also, in the assay with rats [6] (hypoxia condition, 200 mg/kg dose), the “% Life Extension” value stood at 78%. For the same compound, in the assay on rats [6], the “extended rats life (up to)” value was “up to 78%”. In the assay on rats [4], the “Effect (rats under hypoxia condition)” value is listed as “++” and the “Life Expanded” value is 65%. Further, the “bioactivity level, in words” value in assay [3] is reported as “highest bioactivity level”. Further, the “bioactivity level, in words” value in assay [3] (listed as Magnesium Salvianolate B) is “most biologically effective compound”.
In the case of `O=C(O)C(O)Cc1ccc(O)c(O)c1` (stereo not shown) [Danshensu, 3',4 phenyllatic Acid], in the assay on animal, the “animal endurance capacity under hypoxia conditions, in words” value (shortened to “animal endurance capacity”) is on record as “increase animal endurance capacity under hypoxia conditions”.
Turning to `O=Cc1ccc(O)c(O)c1` [Protocatechualdehydes, Protocatechualdehyde], the “animal endurance capacity” value in the assay with animal is “increase animal endurance capacity under hypoxia conditions”.
Turning to `O=C(/C=C/c1ccc(O)c(O)c1/C=C/c1ccc(O)c(O)c1)OC(Cc1ccc(O)c(O)c1)C(=O)O` (stereo not shown) [Salvianolic Acid A], in the assay with animal, the “animal endurance capacity” value is given as “increase animal endurance capacity under hypoxia conditions”.
With `O=C(/C=C/c1ccc(O)c2c1[C@H](C(=O)O[C@H](Cc1ccc(O)c(O)c1)C(=O)O)[C@@H](c1ccc(O)c(O)c1)O2)O[C@H](Cc1ccc(O)c(O)c1)C(=O)O` [Salvianolic Acid B], the “animal endurance capacity” value in the assay with animal is “increase animal endurance capacity under hypoxia conditions”.
For “Magnesium Isosalvianolate B [Compound 8]”, in assay [1], the “Degree of Inhibition” value came to 100% and the “Effect (red blood cell lysis by H2O2)” value is given as “++”. The “% Inhibition (platelet anti-aggregation)” value with Platelet aggregation [2] (180 mcg/ml, in vitro) is 0%. Besides, the “% Inhibition (platelet anti-aggregation)” value in the assay with Platelet aggregation [2] (900 mcg/ml, in vitro) came out at 20%. Also, the “extended rats life (up to)” value with rats [6] is listed as “up to 78%”. Further, in the assay with rats [4], the “Effect (rats under hypoxia condition)” value is on record as “++” and the “Life Expanded” value was 69%.

Usually inhibition stands for the change of the read-out against control, counted positive when it falls.
